Experimental findings from ChEMBL document CHEMBL3259735, “Designing bifunctional NOP receptor-mu opioid receptor ligands from NOP-receptor selective scaffolds. Part II” (Bioorg Med Chem, 2014) are described below.

The subject of data set [1] is Mus musculus. The experiment in a line: Toxicity in ICR mouse assessed as effect on global effect at 1 to 10 mg/kg, sc administered every 2 days for 6 days measured 24 hrs post last dose during conditioning training. The format is organism-based. Also on record: dose 1-10 mg/kg, route subcutaneous. Particulars: in vivo.
The test system of data set [2] is Mus musculus. The experiment in a line: Toxicity in ICR mouse assessed as rewarding effect by measuring increase in time spent in drug-paired compartment at 1 to 10 mg/kg, sc administered every 2 days for 6 days measured 24 hrs post last dose by conditioned place preference assay. The format is organism-based. Also on record: dose 1-10 mg/kg, route subcutaneous. Conditions: in vivo.

The test system of data set [3] is Mus musculus. The experiment in a line: Toxicity in ICR mouse assessed as increase in global effect at 10 mg/kg, sc administered every 2 days for 6 days measured 24 hrs post last dose during conditioning training. The class given is organism-based. Also on record: dose 10 mg/kg, route subcutaneous. Particulars: in vivo.
Data set [4] concerns Mus musculus. The experiment in a line: Toxicity in ICR mouse assessed as rewarding effect by measuring increase in time spent in drug-paired compartment at 10 mg/kg, sc administered every 2 days for 6 days measured 24 hrs post last dose by conditioned place preference assay. Conditions: in vivo. The format is organism-based. Also on record: dose 10 mg/kg, route subcutaneous.

Data set [5] relates to Mus musculus. The data set can be described thus: Antinociceptive activity in ICR mouse assessed as thermal-stimulus induced tail flick latency at 3 to 10 mg/kg, sc measured up to 4 hrs relative to control. The class given is functional, organism-based. In general terms: Thermal pain tests record how soon the animal reacts.

Structures are written as SMILES. Active and inactive are the calls of the source. No cut-off for these calls is given here.

Take `CCC1C(=O)N(C2CCN([C@H]3CC[C@@H]4CCCc5cccc3c54)CC2)c2ccccc21` (mixture of isomers): the Activity entry in the data set with Mus musculus [1] and in the data set with Mus musculus [2] was “Non-toxic” in each case.
As to `CN1CC[C@]23c4c5ccc(O)c4O[C@H]2[C@@H](O)C=C[C@H]3[C@H]1C5` [MORPHINE], the Activity result in the data set with Mus musculus [3] and with Mus musculus [4] was “Toxic” each time. The outcome in the data set with Mus musculus [5] was Active.
